From US20240415820A1, “COMBINATIONS FOR RETAINING FOLLICLES RESERVE” (SHEBA IMPACT LTD., priority 2021, published 2024) come the findings set out here.

In data set [1] the test system is rpS6. As to the kind of experiment: Western blotting of whole ovaries, prpS6/rpS6. The note with it: whole ovaries 24 hours after Cy 150 mg/kg, alone or co-treated. Type of data set: in vivo, mouse. In general terms: In western blotting, separated proteins are transferred to a membrane and probed.
For data set [2], the system named is PMF oocytes. Kind of data set: Apoptosis assay, cPARP staining. Type of data set: in vivo, mouse. The note with it: ovaries removed 24 h after Cy, alone or co-treated; FIG. 7B.
Description: Apoptosis assay: Sample sections (5μ) from ovaries removed 24h after Cy treatment were stained for apoptotic marker cPARP antibody, and all the PMF oocytes were classified as positive/negative for apoptosis. Oocytes were counted from 6-8 ovaries and the ratio of stained oocytes to total oocytes was calculated.
Data set [3] concerns primary follicles. As to the kind of experiment: Proliferation assay, Ki-67 staining of primary follicles. The class given is in vivo, mouse.
Description: Mild proliferation: 1-2 granulosa cells per follicle stained for Ki-67. Extensive proliferation: 3 or more granulosa cells per follicle stained for Ki-67. An average number of primary follicles stained in each category in 2-3 sections per ovary was calculated.
For data set [4], the system named is mTOR. As to the kind of experiment: Western blotting of whole ovaries, pmTOR/mTOR. Type of data set: in vivo, mouse. The conditions noted are these: whole ovaries 24 hours after Cy 150 mg/kg, alone or co-treated.
The test system of data set [5] is primordial follicles (PMF). As to the kind of experiment: In vivo mouse model of Cy-induced follicle depletion, follicle counting (H&E).
Description: Ovaries removed 12 h, 24h, 3 days or 21 days following Cy treatment were fixed in PFA, paraffin-embedded and serially sectioned (5-μm).
Follicle counting: H&E staining was used for differential follicle counts in ovaries removed 3 and 21 days following Cy treatment and conducted as previously described. […] Atretic follicles were not calculated. Only follicles with non-atretic and healthy granulosa cells were counted for total number
The conditions of data set [6]: 3 cycles of mating after Cy, alone or co-treated.
For data set [7], the system named is PMF oocytes. As to the kind of experiment: DNA damage assay, γH2AX staining. Type of data set: in vivo, mouse. The note with it: ovaries removed 12 h after Cy, alone or co-treated; FIG. 7A. How it is done: BALB/c female mice aged 12 days or 8 weeks (Envigo, Israel) were given a single intraperitoneal injection of 200 μl of PBS or an equal volume of 150 mg/kg Cy (Sigma-Aldrich), 5 mg/kg temsirolimus (Selleck Chemicals; 5 doses in 7 days before Cy treatment, Bozec et al., 2011; Wan et al., 2006) or 5 μg/mouse human C-terminus recombinant AMH (rAMH R&D Systems), 5 doses in 24 hours—every 6 hours following the administration of Cy (Roness et al., 2019). Ovaries were collected either 12 or 24 hours after Cy treatment for protein analysis and histochemical staining, and 3 or 21 days after Cy treatment for H&E staining and follicle counts. Ovaries were removed and placed immediately into either RNA later solution or 4% paraformaldehyde. All procedures were approved by the Institutional Animal Care and Use Institutional Ethics Committee.
DNA damage assay: Sample sections (5μ) from ovaries removed 12h after Cy treatment were stained for DNA damage evaluation with γH2AX antibody, and all the PMF oocytes were classified as positive/negative for DNA damage. Oocytes were counted from 6-8 ovaries and the ratio of stained oocytes to total oocytes was calculated.

Data set [8] relates to primordial follicles (PMF). As to the kind of experiment: Ex vivo culture of neonatal mouse ovaries with PM, PMF counting (H&E). The class given is cell-based. The note with it: ex vivo ovaries of 12 days mice, PM 4 hours, with or without 400 nM Tem; FIG. 2A.
Setting [9] is: Cy 150 mg/kg, with or without Tem, FIG. 3B.

Turning to `O=P1(N(CCCl)CCCl)NCCCO1` (stereo not shown) [Cy, cyclophosphamide], the “relative band intensity of phosphorylated rpS6 (prpS6/rpS6 ratio)” value in data set [1] is 1.88. In addition, the “PMF oocytes stained positive for cPARP (apoptosis)” value in data set [2] is 22%. Further, in data set [3] (mouse, in vivo), the “Granulosa cells in primary follicles, Extensive proliferation” value is reported as 21%; the “Granulosa cells in primary follicles, Mild proliferation” value stood at 63%; the “Granulosa cells in primary follicles, No proliferation” value is on record as 16%; the “primary follicles classified as proliferating (either mild or extensive proliferation)” value came out at 84%. For the same compound, the “relative band intensity of phosphorylated mTOR (pmTOR/mTOR ratio)” value in data set [4] amounted to 1.44. In addition, in data set [5] (mouse, in vivo), the PMF loss is recorded as 77%; the “PMFs 3 days after Cy treatment” value worked out at 59.5±2.7; the “number of PMFs three weeks after treatment” value was determined as 32±2.12; the “ratio between growing and dormant follicles” value was 1.31. The “total number of growing follicles 3 days after Cy treatment” value in data set [5] (mouse, in vivo) amounted to 78.5±6.1. For the same compound, the mean litter size in data set [6] is recorded as 4.62. In data set [7], the “PMF oocytes stained positive for γH2AX (DNA damage)” value is “more than 90%”.

As for `CO[C@H]1C[C@@H]2CC[C@@H](C)[C@@](O)(O2)C(=O)C(=O)N2CCCC[C@H]2C(=O)O[C@H]([C@H](C)C[C@@H]2CC[C@@H](OC(=O)C(C)(CO)CO)[C@H](OC)C2)CC(=O)[C@H](C)/C=C(\C)[C@@H](O)[C@@H](OC)C(=O)[C@H](C)C[C@H](C)/C=C/C=C/C=C/1C` [Tem, Temsirolimus], in data set [1], the “relative band intensity of phosphorylated rpS6 (prpS6/rpS6 ratio)” value was determined as 0.3. Besides, in data set [8], the “PMFs on day 7 of culture” value stood at 124±5.9. In addition, the “PMF oocytes stained positive for cPARP (apoptosis)” value in data set [2] is recorded as 14%. Besides, in data set [3] (Ki-67, 1-2 granulosa cells stained, ovaries removed 24 hours after Cy 150 mg/kg or PBS), the “Granulosa cells in primary follicles, Mild proliferation” value came to 22%. Also, the “Granulosa cells in primary follicles, Extensive proliferation” value in data set [3] (Ki-67, 3 or more granulosa cells stained, ovaries removed 24 hours after Cy 150 mg/kg or PBS) amounted to 5%. The “primary follicles classified as proliferating (either mild or extensive proliferation)” value in data set [3] (Ki-67, 24 hours after Cy, alone or co-treated) was found to be 32%. For the same compound, the “Granulosa cells in primary follicles, No proliferation” value in data set [3] (Ki-67, ovaries removed 24 hours after Cy 150 mg/kg or PBS) was 73%. Moreover, the “relative band intensity of phosphorylated mTOR (pmTOR/mTOR ratio)” value in data set [4] is 0.57. For the same compound, the “PMF count 21 days after Cy treatment” value in data set [5] (8-week-old mice, single dose Cy 150 mg/kg, with or without Tem 5 mg/kg 5 doses, FIG. 3A) is given as 122.5±1.7. In addition, the “ratio between growing and dormant follicles” value in data set [5] (3 days after Cy 150 mg/kg, with or without Tem, FIG. 3C) stood at 0.66. Besides, the “number of PMFs three weeks after treatment” value in data set [5] (Cy 150 mg/kg, with or without Tem and/or rAMH (5 μg/mouse, 5 doses), FIG. 4) amounted to 68.5±2.69. Also, in data set [5] (setting [9]), the “PMFs 3 days after Cy treatment” value worked out at 101.6±8.9 and the “total number of growing follicles 3 days after Cy treatment” value was determined as 65.6±5.2. Further, the PMF loss in data set [5] (three weeks after Cy 150 mg/kg, with or without co-treatment, FIG. 4) is 52%.
